Values quoted from earlier work, collected in patent US20140271772A1, “BIODEGRADABLE SUBCUTANEOUS IMPLANTS AND METHODS OF MAKING” (priority 2013, published 2014).

Nc1nc2c(ncn2COCCO)c(=O)[nH]1 [acyclovir]
toxicity to cats (cats): toxic to cats | oral bioavailability: 10-30%
